In PubChem BioAssay (NCI):
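Interpolation was linear, between the two tested concentrations surrounding the appropriate level; five concentrations were tested over 48 hours in 96-well plates. GI50 is the concentration that inhibits growth by half. TGI marks complete inhibition of growth.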

Columns and labels:
Experiment in all cases: inhibition of tumour cell growth, NCI panel, 48 h
[1] = system: RPMI-8226 leukemia
[2] = system: HOP-62 NSCLC
[3] = system: HCT-116 colon
[4] = system: OVCAR-4 ovarian
[5] = system: OVCAR-8 ovarian
[6] = system: OVCAR-5 ovarian
[7] = system: T-47D breast
[8] = system: MDA-MB-435
[9] = system: SF-295 CNS
[10] = system: EKVX NSCLC

Compound	GI50 [1] [µM]	TGI [1] [µM]	GI50 [2] [µM]	TGI [2] [µM]	GI50 [3] [µM]	TGI [3] [µM]	GI50 [4] [µM]	TGI [4] [µM]	GI50 [5] [µM]	TGI [5] [µM]	GI50 [6] [µM]	TGI [6] [µM]	GI50 [7] [µM]	TGI [7] [µM]	GI50 [8] [µM]	TGI [8] [µM]	GI50 [9] [µM]	TGI [9] [µM]	TGI [10] [µM]	GI50 [10] [µM]
O=C1OC(=O)C(c2c[nH]c3ccccc23)=C1c1c[nH]c2ccccc12	> 25	> 25	> 25	> 25	> 25	> 25	> 25	> 25	> 25	> 25	> 25	> 25	> 25	> 25	> 25	> 25	> 25	> 25		
CCCN=Cc1cc(Cc2ccc(O)c(C=NCCC)c2)ccc1O				> 100		7.19		86.1		20.4		36.6		6.33		> 100		52.5	26.4	
Nc1cc2cccc[n+]2c2cc(Cl)ccc12	2.86	29.9			30.2		8.44	38.9	16.8	57.9	25.7		6.83		15.7	48.7	23.1			34
Cc1[c-]onc1C.Cc1[c-]onc1C.[Ag].[Ag].[NH-]S(=O)(=O)c1ccc(N=Nc2cc(N=Nc3ccc(S([NH-])(=O)=O)cc3)c3c(NC(=O)C(Cl)Cl)cccc3c2OC(=O)C(Cl)Cl)cc1	9.27	27.2	16.8	38.9	5.12	18.2	7.66	15.1	10.1	36.4	9.92	19	2.1	17.4	7.87	16.3	33.9	> 50		
CCCC[C@H](NC(=O)[C@H]1CCCN1C)C(=O)N(C)[C@H](C[C@@H](OC(C)=O)c1nc(C(=O)N[C@@H](Cc2ccccc2)C[C@H](C)C(=O)OCC)cs1)C(C)C	0.00399	4.84	0.0439	> 33.3	0.0125	> 33.3	0.357	> 33.3	0.036	> 33.3	0.0642	> 33.3			< 0.00333	0.00655	0.0139	4.13	> 33.3	0.0591
CN(C)S(=O)(=O)c1ccc(NC(=O)COC(=O)c2ccc(S(=O)(=O)N3CCCCC3)cc2)cc1	> 100	> 100	> 100	> 100	> 100	> 100	> 100	> 100			> 100	> 100	> 100	> 100	> 100	> 100	> 100	> 100	> 100	> 100
C[C@H](Nc1ncnc2nc[nH]c12)c1cc2cccc(Cl)c2c(=O)n1-c1ccccc1	60.3	> 100	30.3	> 100	18.4	> 100	> 100	> 100	27	> 100	21.4	> 100	1.58	> 43.5	19.4	> 100	1.54	> 100		
COC(=O)[C@@H](C)C[C@H](Cc1ccccc1)NC(=O)c1nc([C@@H](C[C@H](C(C)C)N(C)C(=O)[C@@H](NC(=O)[C@H]2CCCCN2C)C(C)C)OC(C)=O)sc1C	< 0.00167	> 11.4	0.00186	> 16.7	< 0.00167	> 9.5	0.0179	> 16.7	< 0.00167	> 16.7	0.00478	> 16.7			< 0.00167	< 0.00167	< 0.00167	> 16.7	> 16.7	0.00666
CC(C)(C)C#CC1=C(Br)C(=O)OC1	0.597	3.71	0.454	1.48			1.85	19.6	2.54	12.7		0.608	16.5	66.8	7.44	24.1	6.9	18.2	4.71	1.69
ClCCn1c(CCl)nc2ccc(Cl)cc21	1.42	3.87	1.58	3.3	0.272	0.731	1.34	4.71	0.338	1.6	1.21	2.77	1.86	4.19	0.692	2.12	2.21	5.5		
COc1ccc(C(=O)/C=C/c2ccc(/C=C/c3cc(OC)c(OC)c(OC)c3)cc2)cc1	2.57	8.54	12.8	63.8	2.62	> 100	6.31	47.3	3.76	61.1	34.1	> 100	6.19	> 100	4.28	47.7	9.01	> 100		
CCCCCn1c(=N)n(CC(O)COc2cccc(C)c2)c2ccccc21 (centres undefined)	2.09	5.2	12	25.6	3.03	17.7	3.67	17.6	2.11	5.04	9.82	25.2	3.33	10.6	3	11.2	5.62	22.8		
CC(C)(C)OC(=O)C#CC[C@H]1CCCC1/C=C/C(O)=C1/C(=O)NC(CCCNC(=O)OC(C)(C)C)C1=O (some centres undefined)		84.5		> 100		23.9		94.1		31.6		> 100						> 100	> 100	
